{"source": "the supplement of paper PMC10307832", "assay_in_all_cases": "relative viability (nuclei count vs DMSO), 5 days (fraction); higher = more cells survive", "key": {"[1]": {"system": "HCC-366", "outline": "(§1)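 Lung cancer cell lines in 1536-well plates got either a single drug or a fixed anchor-drug dose together with five library-drug doses (not always all listed) in √10 steps, by pin tool, on the day after seeding. Nuclei were counted after 5 days, and relative viability is the treated-to-vehicle ratio of nuclei counts. Values are medians of duplicate plates.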"}, "[2]": {"system": "NCI-H647", "outline": "as §1"}, "[3]": {"system": "NCI-H2170", "outline": "as §1"}, "[4]": {"system": "HARA", "outline": "as §1"}, "[5]": {"system": "LOU-NH91", "outline": "as §1"}, "[6]": {"system": "NCI-H1792", "outline": "as §1"}, "[7]": {"system": "NCI-H1355", "outline": "as §1"}, "[8]": {"system": "NCI-H1437", "outline": "as §1"}, "[9]": {"system": "NCI-H1734", "outline": "as §1"}, "[10]": {"system": "BEN", "outline": "as §1"}, "[11]": {"system": "NCI-H2405", "outline": "as §1"}, "[12]": {"system": "NCI-H1993", "outline": "as §1"}, "[13]": {"system": "HCC-827", "outline": "as §1"}, "[14]": {"system": "NCI-H2342", "outline": "as §1"}, "[15]": {"system": "NCI-H1395", "outline": "as §1"}, "[16]": {"system": "NCI-H661", "outline": "as §1"}, "[17]": {"system": "NCI-H2087", "outline": "as §1"}, "[18]": {"system": "EKVX", "outline": "as §1"}, "[19]": {"system": "NCI-H522", "outline": "as §1"}, "[20]": {"system": "SK-MES-1", "outline": "as §1"}, "[21]": {"system": "NCI-H2009", "outline": "as §1"}, "[22]": {"system": "SK-LU-1", "outline": "as §1"}}}
{"compound": "CCN(CC)CCCCNc1ncc2cc(-c3cc(OC)cc(OC)c3)c(NC(=O)NC(C)(C)C)nc2n1", "note": "+ Cc1nc(Nc2ncc(C(=O)Nc3c(C)cccc3Cl)s2)cc(N2CCN(CCO)CC2)n1 [Dasatinib] (partner 0.075 µM)", "values": [{"measurement": "relative viability", "setting": "[1]; first compound 0.01 µM", "value": 0.601}, {"measurement": "relative viability", "setting": "[1]; first compound 0.03162 µM", "value": 0.686}, {"measurement": "relative viability", "setting": "[1]; first compound 0.1 µM", "value": 0.942}, {"measurement": "relative viability", "setting": "[1]; first compound 0.3162 µM", "value": 0.659}, {"measurement": "relative viability", "setting": "[1]; first compound 1 µM", "value": 0.613}, {"measurement": "relative viability", "setting": "[2]; first compound 0.01 µM", "value": 0.189}, {"measurement": "relative viability", "setting": "[2]; first compound 0.03162 µM", "value": 0.174}, {"measurement": "relative viability", "setting": "[2]; first compound 0.1 µM", "value": 0.209}, {"measurement": "relative viability", "setting": "[2]; first compound 0.3162 µM", "value": 0.218}, {"measurement": "relative viability", "setting": "[2]; first compound 1 µM", "value": 0.0989}, {"measurement": "relative viability", "setting": "[3]; first compound 0.01 µM", "value": 0.537}, {"measurement": "relative viability", "setting": "[3]; first compound 0.03162 µM", "value": 0.574}, {"measurement": "relative viability", "setting": "[3]; first compound 0.1 µM", "value": 0.643}, {"measurement": "relative viability", "setting": "[3]; first compound 0.3162 µM", "value": 0.818}, {"measurement": "relative viability", "setting": "[3]; first compound 1 µM", "value": 0.539}, {"measurement": "relative viability", "setting": "[4]; first compound 0.01 µM", "value": 0.284}, {"measurement": "relative viability", "setting": "[4]; first compound 0.03162 µM", "value": 0.246}, {"measurement": "relative viability", "setting": "[4]; first compound 0.1 µM", "value": 0.312}, {"measurement": "relative viability", "setting": "[4]; first compound 0.3162 µM", "value": 0.142}, {"measurement": "relative viability", "setting": "[4]; first compound 1 µM", "value": 0.237}, {"measurement": "relative viability", "setting": "[5]; first compound 0.01 µM", "value": 0.51}, {"measurement": "relative viability", "setting": "[5]; first compound 0.03162 µM", "value": 0.521}, {"measurement": "relative viability", "setting": "[5]; first compound 0.1 µM", "value": 0.629}, {"measurement": "relative viability", "setting": "[5]; first compound 0.3162 µM", "value": 0.718}, {"measurement": "relative viability", "setting": "[5]; first compound 1 µM", "value": 0.57}, {"measurement": "relative viability", "setting": "[6]; first compound 0.01 µM", "value": 0.734}, {"measurement": "relative viability", "setting": "[6]; first compound 0.03162 µM", "value": 0.849}, {"measurement": "relative viability", "setting": "[6]; first compound 0.1 µM", "value": 0.837}, {"measurement": "relative viability", "setting": "[6]; first compound 0.3162 µM", "value": 0.671}, {"measurement": "relative viability", "setting": "[6]; first compound 1 µM", "value": 0.475}, {"measurement": "relative viability", "setting": "[7]; first compound 0.01 µM", "value": 0.775}, {"measurement": "relative viability", "setting": "[7]; first compound 0.03162 µM", "value": 0.751}, {"measurement": "relative viability", "setting": "[7]; first compound 0.1 µM", "value": 0.746}, {"measurement": "relative viability", "setting": "[7]; first compound 0.3162 µM", "value": 0.775}, {"measurement": "relative viability", "setting": "[7]; first compound 1 µM", "value": 0.663}, {"measurement": "relative viability", "setting": "[8]; first compound 0.01 µM", "value": 0.366}, {"measurement": "relative viability", "setting": "[8]; first compound 0.03162 µM", "value": 0.504}, {"measurement": "relative viability", "setting": "[8]; first compound 0.1 µM", "value": 0.419}, {"measurement": "relative viability", "setting": "[8]; first compound 0.3162 µM", "value": 0.447}, {"measurement": "relative viability", "setting": "[8]; first compound 1 µM", "value": 0.335}, {"measurement": "relative viability", "setting": "[9]; first compound 0.01 µM", "value": 0.508}, {"measurement": "relative viability", "setting": "[9]; first compound 0.03162 µM", "value": 0.507}, {"measurement": "relative viability", "setting": "[9]; first compound 0.1 µM", "value": 0.521}, {"measurement": "relative viability", "setting": "[9]; first compound 0.3162 µM", "value": 0.543}, {"measurement": "relative viability", "setting": "[9]; first compound 1 µM", "value": 0.436}, {"measurement": "relative viability", "setting": "[10]; first compound 0.01 µM", "value": 0.298}, {"measurement": "relative viability", "setting": "[10]; first compound 0.03162 µM", "value": 0.282}, {"measurement": "relative viability", "setting": "[10]; first compound 0.1 µM", "value": 0.359}, {"measurement": "relative viability", "setting": "[10]; first compound 0.3162 µM", "value": 0.353}, {"measurement": "relative viability", "setting": "[10]; first compound 1 µM", "value": 0.26}, {"measurement": "relative viability", "setting": "[11]; first compound 0.01 µM", "value": 0.193}, {"measurement": "relative viability", "setting": "[11]; first compound 0.03162 µM", "value": 0.202}, {"measurement": "relative viability", "setting": "[11]; first compound 0.1 µM", "value": 0.466}, {"measurement": "relative viability", "setting": "[11]; first compound 0.3162 µM", "value": 0.205}, {"measurement": "relative viability", "setting": "[11]; first compound 1 µM", "value": 0.186}, {"measurement": "relative viability", "setting": "[12]; first compound 0.01 µM", "value": 0.31}, {"measurement": "relative viability", "setting": "[12]; first compound 0.03162 µM", "value": 0.604}, {"measurement": "relative viability", "setting": "[12]; first compound 0.1 µM", "value": 0.611}, {"measurement": "relative viability", "setting": "[12]; first compound 0.3162 µM", "value": 0.604}, {"measurement": "relative viability", "setting": "[12]; first compound 1 µM", "value": 0.536}, {"measurement": "relative viability", "setting": "[13]; first compound 0.01 µM", "value": 0.338}, {"measurement": "relative viability", "setting": "[13]; first compound 0.03162 µM", "value": 0.245}, {"measurement": "relative viability", "setting": "[13]; first compound 0.1 µM", "value": 0.352}, {"measurement": "relative viability", "setting": "[13]; first compound 0.3162 µM", "value": 0.335}, {"measurement": "relative viability", "setting": "[13]; first compound 1 µM", "value": 0.299}, {"measurement": "relative viability", "setting": "[14]; first compound 0.01 µM", "value": 0.296}, {"measurement": "relative viability", "setting": "[14]; first compound 0.03162 µM", "value": 0.345}, {"measurement": "relative viability", "setting": "[14]; first compound 0.1 µM", "value": 0.321}, {"measurement": "relative viability", "setting": "[14]; first compound 0.3162 µM", "value": 0.332}, {"measurement": "relative viability", "setting": "[14]; first compound 1 µM", "value": 0.31}, {"measurement": "relative viability", "setting": "[15]; first compound 0.01 µM", "value": 0.421}, {"measurement": "relative viability", "setting": "[15]; first compound 0.03162 µM", "value": 0.422}, {"measurement": "relative viability", "setting": "[15]; first compound 0.1 µM", "value": 0.753}, {"measurement": "relative viability", "setting": "[15]; first compound 0.3162 µM", "value": 0.386}, {"measurement": "relative viability", "setting": "[15]; first compound 1 µM", "value": 0.411}, {"measurement": "relative viability", "setting": "[16]; first compound 0.01 µM", "value": 0.906}, {"measurement": "relative viability", "setting": "[16]; first compound 0.03162 µM", "value": 0.841}, {"measurement": "relative viability", "setting": "[16]; first compound 0.1 µM", "value": 1.1}, {"measurement": "relative viability", "setting": "[16]; first compound 0.3162 µM", "value": 1.03}, {"measurement": "relative viability", "setting": "[16]; first compound 1 µM", "value": 0.644}, {"measurement": "relative viability", "setting": "[17]; first compound 0.01 µM", "value": 0.993}, {"measurement": "relative viability", "setting": "[17]; first compound 0.03162 µM", "value": 0.797}, {"measurement": "relative viability", "setting": "[17]; first compound 0.1 µM", "value": 0.964}, {"measurement": "relative viability", "setting": "[17]; first compound 0.3162 µM", "value": 0.961}, {"measurement": "relative viability", "setting": "[17]; first compound 1 µM", "value": 0.888}, {"measurement": "relative viability", "setting": "[18]; first compound 0.01 µM", "value": 0.547}, {"measurement": "relative viability", "setting": "[18]; first compound 0.03162 µM", "value": 0.604}, {"measurement": "relative viability", "setting": "[18]; first compound 0.1 µM", "value": 0.57}, {"measurement": "relative viability", "setting": "[18]; first compound 0.3162 µM", "value": 0.563}, {"measurement": "relative viability", "setting": "[18]; first compound 1 µM", "value": 0.349}, {"measurement": "relative viability", "setting": "[19]; first compound 0.01 µM", "value": 0.862}, {"measurement": "relative viability", "setting": "[19]; first compound 0.03162 µM", "value": 1.01}, {"measurement": "relative viability", "setting": "[19]; first compound 0.1 µM", "value": 1}, {"measurement": "relative viability", "setting": "[19]; first compound 0.3162 µM", "value": 0.879}, {"measurement": "relative viability", "setting": "[19]; first compound 1 µM", "value": 0.79}, {"measurement": "relative viability", "setting": "[20]; first compound 0.01 µM", "value": 0.36}, {"measurement": "relative viability", "setting": "[20]; first compound 0.03162 µM", "value": 0.375}, {"measurement": "relative viability", "setting": "[20]; first compound 0.1 µM", "value": 0.407}, {"measurement": "relative viability", "setting": "[20]; first compound 0.3162 µM", "value": 0.281}, {"measurement": "relative viability", "setting": "[20]; first compound 1 µM", "value": 0.27}, {"measurement": "relative viability", "setting": "[21]; first compound 0.01 µM", "value": 0.299}, {"measurement": "relative viability", "setting": "[21]; first compound 0.03162 µM", "value": 0.316}, {"measurement": "relative viability", "setting": "[21]; first compound 0.1 µM", "value": 0.347}, {"measurement": "relative viability", "setting": "[21]; first compound 0.3162 µM", "value": 0.292}, {"measurement": "relative viability", "setting": "[21]; first compound 1 µM", "value": 0.246}, {"measurement": "relative viability", "setting": "[22]; first compound 0.01 µM", "value": 0.158}, {"measurement": "relative viability", "setting": "[22]; first compound 0.03162 µM", "value": 0.163}, {"measurement": "relative viability", "setting": "[22]; first compound 0.1 µM", "value": 0.177}, {"measurement": "relative viability", "setting": "[22]; first compound 0.3162 µM", "value": 0.194}, {"measurement": "relative viability", "setting": "[22]; first compound 1 µM", "value": 0.13}]}
